Test results taken from patent publication US20240116923A1, “USE OF INDOLE, 6- AND 7-AZAINDOLE DERIVATIVES AS INHIBITORS OF FERROPTOSIS REGULATED CELL DEATH” (Seabelife, priority 2021, published 2024).
Like-named read-outs stand apart in the source and are kept apart here.

Legend:
[1] = tested on: mouse hippocampal neuronal cell line HT22; assay: Neurotoxicity and excitotoxicity assay, HT22 cells + glutamate, erastin or RSL3, MTS cell viability; assay type: cell-based; conditions: for EC50: Mus musculus
Protocol: (§1) The excitotoxicity model used was the mouse hippocampal neuronal HT22 cells treated with glutamate [Dixon et al., Cell, 2012, 149(5), 1060-1072]. Ferroptosis and oxidative stress are both associated in this glutamate-induced cell death [Chu et al., Neural Regen. Res., 2020, 15(3), 528-536]. Phenotypic screening was also carried out with additional cell death inducers, erastin and RSL3 ((1S,3R)-Ras-selective lethal), in HT22 and SH-SY5Y (human neuroblastoma cells). Erastin and RSL3 are well described molecules, used as chemical tools for the study of ferroptosis regulation and neuronal pathologies [Lewerenz et al., Front. Neurosci., 2018, 12: 214; Reichert et al., Int. J. Mol. Sci., 2020, 21, 8765].
(§2) Mouse hippocampal neuronal cell line (HT22, ATCC) and human neuroblastoma cell line (SH-SY5Y, ATCC) were grown in Dulbecco's Modified Eagle Medium (DMEM, Gibco) supplemented with 10% fetal bovine serum (FBS, Gibco) at 37° C. under 5% CO2 atmosphere. Neurotoxicity was induced by erastin or RSL3 and excitotoxicity was induced by glutamate. Cells were seeded in 96-well plates at 5,000 and 10,000 cells/well for HT22 and SH-SY5Y cell lines, respectively. Cells were treated with 0.5-1 μM Erastin (HT22 cells) or 10 μM Erastin (SH-SY5Y cells) or 5-10 mM glutamate (HT22 cells) or 0.5 μM RSL3 (HT22 cells) or 5 μM RSL3 (SH-SY5Y cells) for 24 h in presence of increasing concentrations of inhibitors. Cells treated with DMSO only were used as controls. Cell viability was assessed by MTS assay (CellTiter 96 AQueous One Solution Cell Proliferation assay, Promega).
(§3) In FIGS. 1, 2A and 2B, an inhibitor was added to HT22 (FIG. 1: compound 6) or SH-SY5Y (FIG. 2A: compound 6; FIG. 2B: compound 25) cells in the presence or not of cell death inducers (erastin, glutamate or RSL3). […] EC50 values for compounds 1-28 were calculated from dose-response curves using Graphpad Prism software.

[2] = tested on: human neuroblastoma cell line SH-SY5Y; assay: Neurotoxicity assay, SH-SY5Y cells + erastin or RSL3, MTS cell viability; assay type: cell-based; conditions: for EC50: Homo sapiens; for effect on cell viability without cell death inducers (potential cytotoxic effect of the molecule alone): doses tested maximum 50 or 100 μM; for concentration reaching almost total inhibition of induced cell death: in the presence of a ferroptosis inducer
Protocol: as §1, §2, §3

[3] = HT-22, 24 h, read-out: EC50 HT22 Erastin
[4] = HT-22, 24 h, read-out: EC50 HT22 Glutamate
[5] = HT-22, 24 h, read-out: EC50 HT22 RSL3
[6] = SH-SY5Y, 24 h, read-out: EC50 SH-SY5Y Erastin
[7] = SH-SY5Y, 24 h, read-out: EC50 SH-SY5Y RSL3
[8] = HT-22, HT22 cells, 0.5 μM RSL3, 24 h, MTS, read-out: EC50 HT22 RSL3
[9] = HT-22, HT22 cells, 0.5-1 μM Erastin, 24 h, MTS, read-out: EC50 HT22 Erastin
[10] = HT-22, HT22 cells, 5-10 mM glutamate, 24 h, MTS, read-out: EC50 HT22 Glutamate
[11] = SH-SY5Y cells, 5 μM RSL3, 24 h, MTS, read-out: EC50 SH-SY5Y RSL3
[12] = SH-SY5Y cells, 10 μM Erastin, 24 h, MTS, read-out: EC50 SH-SY5Y Erastin

COc1ccc(-c2cc3ccccc3[nH]2)cc1 [Compound 2, 2-(4-methoxyphenyl)-1H-indole]
EC50 [1, 3]: 7.92 µM
EC50 [1, 4]: 2.66 µM
EC50 [1, 5]: 46 µM
EC50 [2, 6]: 2.9 µM
EC50 [2, 7]: 7.43 µM

COc1ccc(-c2cc3ccccc3n2O)cc1 [Compound 3, 2-(4-methoxyphenyl)-1H-indol-1-ol]
EC50 [1, 8]: 0.32 µM
EC50 [1, 9]: 0.92 µM
EC50 [1, 10]: 1.13 µM

CCOc1ccc(-c2cc3ccncc3[nH]2)cc1 [Compound 4, 2-(4-ethoxyphenyl)-1H-pyrrolo[2,3-c]pyridine]
EC50 [1, 8]: 27.8 µM
EC50 [1, 9]: > 25 µM
EC50 [1, 10]: > 25 µM
EC50 [2, 11]: 5.42 µM
EC50 [2, 12]: 7.66 µM

CCOc1ccc(-c2cc3ccncc3n2O)cc1 [Compound 5, 2-(4-ethoxyphenyl)-1Hpyrrolo[2,3-c]pyridin-1-ol]
EC50 [1, 8]: 2.79 µM
EC50 [1, 9]: 3.23 µM
EC50 [1, 10]: 3.6 µM
EC50 [2, 12]: 0.52 µM

CCOc1ccc(-c2cc3ccncc3n2OC(=O)c2ccccc2)cc1 [Compound 6, 2-(4-ethoxyphenyl)-1H-pyrrolo[2,3-c]pyridin-1-yl benzoate]
effect on cell viability without cell death inducers (potential cytotoxic effect of the molecule alone) ([1]; HT22 cells, 24 h, doses tested maximum 50 or 100 μM): no effect on cell viability
concentration reaching almost total inhibition of induced cell death ([1]; HT22 cells, in the presence of a ferroptosis inducer): 10 µM
EC50 [1, 8]: 2.31 µM
EC50 [1, 9]: 2.05 µM
EC50 [1, 10]: 1.64 µM
EC50 [2, 12]: 0.18 µM
effect on cell viability without cell death inducers (potential cytotoxic effect of the molecule alone) ([2]; SH-SY5Y cells, 24 h): no effect on cell viability
concentration reaching almost total inhibition of induced cell death ([2]; SH-SY5Y cells): 1 µM

NCC(=O)Oc1ccc(-c2cc3cccnc3[nH]2)cc1 [Compound 8, 4-(1H-pyrrolo[2,3-b]pyridin-2-yl)phenyl glycinate]
EC50 [1, 3]: > 25 µM
EC50 [1, 4]: > 25 µM
EC50 [1, 5]: > 50 µM
EC50 [2, 6]: 21.5 µM
EC50 [2, 7]: 5.98 µM

CC(CO)(CO)C(=O)Oc1ccc(-c2cc3cccnc3[nH]2)cc1 [Compound 10, 4-(1H-pyrrolo[2,3-b]pyridin-2-yl)phenyl 3-hydroxy-2-(hydroxymethyl)-2-methylpropanoate]
EC50 [1, 8]: > 50 µM
EC50 [1, 9]: > 25 µM
EC50 [1, 10]: > 25 µM
EC50 [2, 12]: 13.7 µM

CCOc1ccc(-c2cc3c(Nc4ccc(C(=O)c5ccccc5)cc4)ccnc3[nH]2)cc1 [Compound 11, (4-((2-(4-ethoxyphenyl)-1H-pyrrolo[2,3-b]pyridin-4-yl)amino)phenyl)(phenyl)methanone]
EC50 [1, 8]: 1.16 µM
EC50 [1, 9]: 0.32 µM
EC50 [1, 10]: 0.14 µM
EC50 [2, 12]: 0.15 µM

CCOc1ccc(-c2cc3c(NCc4ccccc4)ccnc3[nH]2)cc1 [Compound 12, N-benzyl-2-(4-ethoxyphenyl)-1H-pyrrolo[2,3-b]pyridin-4-amine]
EC50 [1, 8]: 0.94 µM
EC50 [1, 9]: 0.91 µM
EC50 [1, 10]: 0.5 µM
EC50 [2, 12]: 0.43 µM

CCOc1ccc(-c2cc3c(N4CCCCC4)ccnc3[nH]2)cc1 [Compound 13, 2-(4-ethoxyphenyl)-4-(piperidin-1-yl)-1H-pyrrolo[2,3-b]pyridine]
EC50 [1, 8]: 44.1 µM
EC50 [1, 9]: 3.62 µM
EC50 [1, 10]: 0.92 µM
EC50 [2, 11]: 9.25 µM
EC50 [2, 12]: 1.11 µM

CCOc1ccc(-c2cc3c(Nc4ccccc4)ccnc3[nH]2)cc1 [Compound 14, 2-(4-ethoxyphenyl)-N-phenyl-1H-pyrrolo[2,3-b]pyridin-4-amine]
EC50 [1, 8]: 0.76 µM
EC50 [1, 9]: 1.52 µM
EC50 [1, 10]: 0.55 µM
EC50 [2, 12]: 1.11 µM

CCOc1ccc(-c2cc3c(N4CCN(C)CC4)ccnc3[nH]2)cc1 [Compound 15, 2-(4-ethoxyphenyl)-4-(4-methylpiperazin-1-yl)-1H-pyrrolo[2,3-b]pyridine]
EC50 [1, 8]: 7.19 µM
EC50 [1, 9]: 1.54 µM
EC50 [1, 10]: 0.5 µM
EC50 [2, 12]: 2.45 µM

CCOc1ccc(-c2[nH]c3ncccc3c2CN2CCN(C)CC2)cc1 [Compound 16, 2-(4-ethoxyphenyl)-3-((4-methylpiperazin-1-yl)methyl)-1H-pyrrolo[2,3-b]pyridine]
EC50 [2, 12]: > 50 µM

CCOc1ccc(-c2[nH]c3ncccc3c2I)cc1 [Compound 17, 2-(4-ethoxyphenyl)-3-iodo-1H-pyrrolo[2,3-b]pyridine]
EC50 [2, 12]: > 50 µM

CCOc1ccc(-c2[nH]c3ncccc3c2C(O)C(F)(F)F)cc1 (centres unmarked) [Compound 18, 1-(2-(4-ethoxyphenyl)-1H-pyrrolo[2,3-b]pyridin-3-yl)-2,2,2-trifluoroethan-1-ol]
EC50 [2, 12]: > 50 µM

CCOc1ccc(-c2cc3cccnc3n2-c2ccc([N+](=O)[O-])cn2)cc1 [Compound 19, 2-(4-ethoxyphenyl)-1-(5-nitropyridin-2-yl)-1H-pyrrolo[2,3-b]pyridine]
EC50 [1, 8]: 22.1 µM
EC50 [1, 9]: 23.3 µM
EC50 [1, 10]: 12.8 µM
EC50 [2, 11]: 5.6 µM
EC50 [2, 12]: 14.3 µM

CCOc1ccc(-c2cc3cccnc3n2CCN2CCOCC2)cc1 [Compound 20, 4-(2-(2-(4-ethoxyphenyl)-1H-pyrrolo[2,3-b]pyridin-1-yl)ethyl)morpholine]
EC50 [1, 8]: 16.7 µM
EC50 [1, 9]: 5.14 µM
EC50 [1, 10]: 11.1 µM
EC50 [2, 11]: 27.4 µM
EC50 [2, 12]: 21.4 µM

CCOc1ccc(-c2cc3c(Cl)ccnc3n2C(=O)OC(C)(C)C)cc1 [Compound 21, tert-butyl 4-chloro-2-(4-ethoxyphenyl)-1H-pyrrolo[2,3-b]pyridine-1-carboxylate]
EC50 [1, 9]: > 25 µM
EC50 [1, 10]: > 25 µM
EC50 [2, 12]: > 25 µM

CCOc1ccc(-c2cc3ccc(OC(C)=O)nc3n2C(C)=O)cc1 [Compound 22, 1-acetyl-2-(4-ethoxyphenyl)-1H-pyrrolo[2,3-b]pyridin-6-yl acetate]
EC50 [1, 8]: 9.09 µM
EC50 [1, 9]: 5.53 µM
EC50 [1, 10]: 5.31 µM
EC50 [2, 11]: 0.79 µM
EC50 [2, 12]: 1.16 µM

CCOc1ccc(-c2cc3ccc[n+]([O-])c3[nH]2)cc1 [Compound 23, 2-(4-ethoxyphenyl)-1H-pyrrolo[2,3-b]pyridine-7-oxide]
EC50 [1, 8]: 9.93 µM
EC50 [1, 9]: > 25 µM
EC50 [1, 10]: > 25 µM
EC50 [2, 11]: 2.64 µM
EC50 [2, 12]: 26.3 µM

CCOc1ccc(-c2cc3cccn(C(=O)N(C(C)C)C(C)C)c-3n2)cc1 [Compound 24, 2-(4-ethoxyphenyl)-N,N-diisopropyl-7H-pyrrolo[2,3-b]pyridine-7-carboxamide]
EC50 [1, 3]: > 50 µM
EC50 [1, 4]: > 50 µM
EC50 [1, 5]: 21 µM
EC50 [2, 6]: 11 µM
EC50 [2, 7]: 3.43 µM

CCOc1ccc(-c2cc3cccn(C(=O)OCc4ccccc4)c-3n2)cc1 [Compound 25, benzyl 2-(4-ethoxyphenyl)-7H-pyrrolo[2,3-b]pyridine-7-carboxylate]
EC50 [1, 8]: 19 µM
EC50 [1, 9]: 3.39 µM
EC50 [1, 10]: 1.65 µM
EC50 [2, 11]: 5.25 µM
EC50 [2, 12]: 1.4 µM
effect on cell viability without cell death inducers (potential cytotoxic effect of the molecule alone) ([2]; SH-SY5Y cells, 24 h): no effect on cell viability
concentration reaching almost total inhibition of induced cell death ([2]; SH-SY5Y cells): 10 µM

CCOc1ccc(-c2cc3cccn(Cc4ccccc4)c-3n2)cc1 [Compound 26, 7-benzyl-2-(4-ethoxyphenyl)-7H-pyrrolo[2,3-b]pyridine]
EC50 [1, 9]: 12.7 µM
EC50 [1, 10]: 0.82 µM
EC50 [2, 11]: 33.7 µM
EC50 [2, 12]: 9.94 µM

CCOc1ccc(-c2cc3cccn(Cc4ccc(OC)cc4)c-3n2)cc1 [Compound 27, 2-(4-ethoxyphenyl)-7-(4-methoxybenzyl)-7H-pyrrolo[2,3-b]pyridine]
EC50 [1, 8]: 9.93 µM
EC50 [1, 9]: 3.9 µM
EC50 [1, 10]: 1.5 µM
EC50 [2, 12]: 2.46 µM

Oc1ccc(-c2cc3cc(Br)ccc3[nH]2)cc1 [Compound 30, 4-(5-bromo-TH-indol-2-yl)phenol]
EC50 [1, 3]: 7.5 µM
EC50 [1, 5]: 7.5 µM

c1ccc(COc2ccc(-c3cc4ccccc4[nH]3)cc2)cc1 [Compound 31, 2-(4-(benzyloxy)phenyl)-1H-indole]
EC50 [1, 3]: > 25 µM
EC50 [1, 5]: > 15 µM

Oc1ccc2[nH]c(-c3ccc(OCc4ccccc4)cc3)cc2c1 [Compound 32, 2-(4-(benzyloxy)phenyl)-1H-indol-5-ol]
EC50 [1, 8]: 1 µM
EC50 [1, 9]: 2 µM

Cn1c(-c2ccc(O)cc2)cc2ccccc21 [Compound 33, 4-(1-methyl-1H-indol-2-yl)phenol]
EC50 [1, 8]: 10.8 µM
EC50 [1, 9]: 32 µM
EC50 [1, 10]: 16 µM
